Source: patent publication US8574563B2 (Bristol-Myers Squibb Company, priority 2006, dated 2013)
Where two headings read alike, the source gives them in different places.

System: HCV 1b-377-neo replicon cells
Assay: HCV replicon assay, HCV 1b-377-neo replicon cells (1b FRET)
Assay type: cell-based, Hepatitis C virus genotype 1b
Settings: HCV 1b-377-neo replicon cells, HCV 1b genotype, read-out: EC50 range against HCV 1b (Table 2, Range)
Outline: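 Compounds tested in HCV genotype 1b-377-neo replicon cells with a FRET read-out. Cells resistant to a reference NS5A inhibitor through a Y2065H NS5A mutation were run alongside wild-type cells.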

Row | SMILES | EC50 | EC50 (Hepatitis C virus)
1 | COC(=O)N[C@@H](C(=O)N1CCC[C@H]1c1ncc(-c2ccc(-c3ccc(-c4cnc([C@@H]5CCCN5C(=O)Cc5ccccc5CN5CCCCC5)[nH]4)cc3)cc2)[nH]1)c1ccccc1 [Example 84-85, methyl ((1R)-2-oxo-1-phenyl-2-((2S)-2-(5-(4′-(2-((2S)-1-((2-(1-piperidinylmethyl)phenyl)acetyl)-2-pyrrolidinyl)-1H-imidazol-5-yl)-4-biphenylyl)-1H-imidazol-2-yl)-1-pyrrolidinyl)ethyl)carbamate] | 0.001 to 0.999 nM | –
2 | COC(=O)N[C@@H](C(=O)N1CCC[C@H]1c1ncc(-c2ccc(-c3ccc(-c4cnc([C@@H]5CCCN5C(=O)Cc5ccccc5CN5CCCC5)[nH]4)cc3)cc2)[nH]1)c1ccccc1 [Example 84-86, methyl ((1R)-2-oxo-1-phenyl-2-((2S)-2-(5-(4′-(2-((2S)-1-((2-(1-pyrrolidinylmethyl)phenyl)acetyl)-2-pyrrolidinyl)-1H-imidazol-5-yl)-4-biphenylyl)-1H-imidazol-2-yl)-1-pyrrolidinyl)ethyl)carbamate] | 0.001 to 0.999 nM | –
3 | COC(=O)N[C@@H](C(=O)N1CCC[C@H]1c1ncc(-c2ccc(-c3ccc(-c4cnc([C@@H]5CCCN5C(=O)Cc5ccccc5CN(C)C)[nH]4)cc3)cc2)[nH]1)c1ccccc1 [Example 84-87, methyl ((1R)-2-((2S)-2-(5-(4′-(2-((2S)-1-((2-((dimethylamino)methyl)phenyl)acetyl)-2-pyrrolidinyl)-1H-imidazol-5-yl)-4-biphenylyl)-1H-imidazol-2-yl)-1-pyrrolidinyl)-2-oxo-1-phenylethyl)carbamate] | – | 0.001 to 0.999 nM
4 | CN(C)[C@@H](C(=O)N1CCC[C@H]1c1ncc(-c2ccc(-c3ccc(-c4cnc([C@@H]5CCCN5C(=O)Cc5cccnc5)[nH]4)cc3)cc2)[nH]1)c1ccccc1 [Example 85, (1R)-N,N-dimethyl-2-oxo-1-phenyl-2((2S)-2-(5-(4′-(2-((2S)-1-(3-pyridinylacetyl)-2-pyrrolidinyl)-1H-imidazol-5-yl)-4-biphenylyl)-1H-imidazol-2-yl)-1-pyrrolidinyl)ethanamine] | – | 0.001 to 0.999 nM
5 | CN(C)[C@@H](C(=O)N1CCC[C@H]1c1ncc(-c2ccc(-c3ccc(-c4cnc([C@@H]5CCCN5C(=O)[C@H]5CCCO5)[nH]4)cc3)cc2)[nH]1)c1ccccc1 [Example 86, (1R)-N,N-dimethyl-2-oxo-1-phenyl-2-((2S)-2-(5-(4′-(2-((2S)-1-((2R)-tetrahydro-2-furanylcarbonyl)-2-pyrrolidinyl)-1H-imidazol-5-yl)-4-biphenylyl)-1H-imidazol-2-yl)-1-pyrrolidinyl)ethanamine] | – | 0.001 to 0.999 nM
6 | CN(C)[C@@H](C(=O)N1CCC[C@H]1c1ncc(-c2ccc(-c3ccc(-c4cnc([C@@H]5CCCN5C(=O)[C@@H]5CCCO5)[nH]4)cc3)cc2)[nH]1)c1ccccc1 [Example 87, (1R)-N,N-dimethyl-2-oxo-1-phenyl-2-((2S)-2-(5-(4′-(2-((2S)-1-((2S)-tetrahydro-2-furanylcarbonyl)-2-pyrrolidinyl)-1H-imidazol-5-yl)-4-biphenylyl)-1H-imidazol-2-yl)-1-pyrrolidinyl)ethanamine] | – | 0.001 to 0.999 nM
7 | CN(C)[C@@H](C(=O)N1CCC[C@H]1c1ncc(-c2ccc(-c3ccc(-c4cnc([C@@H]5CCCN5C(=O)Cc5cn(C)cn5)[nH]4)cc3)cc2)[nH]1)c1ccccc1 [Example 88, (1R)-N,N-dimethyl-2-((2S)-2-(5-(4′-(2-((2S)-1-((1-methyl-1H-imidazol-4-yl)acetyl)-2-pyrrolidinyl)-1H-imidazol-5-yl)-4-biphenylyl)-1H-imidazol-2-yl)-1-pyrrolidinyl)-2-oxo-1-phenylethanamine] | – | 0.001 to 0.999 nM
8 | CN(C)[C@@H](C(=O)N1CCC[C@H]1c1ncc(-c2ccc(-c3ccc(-c4cnc([C@@H]5CCCN5C(=O)[C@@H](c5ccccc5)N5CCCC5)[nH]4)cc3)cc2)[nH]1)c1ccccc1 [Example 90, (1R)-N,N-dimethyl-2-oxo-1-phenyl-2-((2S)-2-(5-(4′-(2-((2S)-1-((2R)-2-phenyl-2-(1-pyrrolidinyl)acetyl)-2-pyrrolidinyl)-1H-imidazol-5-yl)-4-biphenylyl)-1H-imidazol-2-yl)-1-pyrrolidinyl)ethanamine] | – | 0.001 to 0.999 nM
